{"source": "paper PMC4646457", "about": "(PLoS ONE, 2015)", "key": {"efflux transporter ABCB1": {"system": "efflux transporter ABCB1", "settings": "read-out: IC50 for inhibition of the efflux transporter ABCB1; cited from earlier work"}, "[1]": {"design": "method as in EGF10027 protocol, CIB RM2000/00481/06", "settings": "mice, rats and dogs; ref EGF10027 protocol, CIB RM2000/00481/06; cited from earlier work"}, "CYP3A4": {"system": "CYP3A4", "design": "method as in EGF10027 protocol, CIB RM2000/00481/06", "settings": "ref EGF10027 protocol, CIB RM2000/00481/06; cited from earlier work"}, "[2]": {"design": "method as in EGF10027 protocol, CIB RM2000/00481/06", "settings": "pregnant rats or rabbits, period of major organogenesis; ref EGF10027 protocol, CIB RM2000/00481/06; cited from earlier work"}, "[3]": {"design": "method as in EGF10027 protocol, CIB RM2000/00481/06", "settings": "oral, male beagle dogs; ref EGF10027 protocol, CIB RM2000/00481/06; cited from earlier work"}, "[4]": {"design": "method as in study EGF10003", "settings": "ref study EGF10003, cited from earlier work"}, "[5]": {"settings": "mice; ref EGF10027 protocol, CIB RM2000/00481/06; cited from earlier work"}, "HER3": {"system": "HER3", "experiment": "Quantitative IHC of phosphorylated HER3 in patient tumor (EGF10027)", "format": "in vivo, human", "settings": "for p-HER3 post-treatment OD: plasma […]"}, "[6]": {"design": "method as in EGF10027 protocol, CIB RM2000/00481/06", "settings": "Ames, CHO and human lymphocyte chromosome aberration, in vivo rat bone marrow; ref EGF10027 protocol, CIB RM2000/00481/06; cited from earlier work"}, "CYP3A": {"system": "CYP3A", "design": "method as in EGF10027 protocol, CIB RM2000/00481/06", "settings": "pregnane X receptor-screening assay; ref EGF10027 protocol, CIB RM2000/00481/06; cited from earlier work"}, "HER2 phosphorylation": {"system": "HER2 phosphorylation", "design": "method as in printed", "settings": "abstract, ref not given, cited from earlier work"}, "[7]": {"settings": "cited from earlier work"}, "plasma proteins": {"system": "plasma proteins", "design": "method as in EGF10027 protocol, CIB RM2000/00481/06", "settings": "mouse, rat, dog, rabbit and human plasma, 1 to 100 µM; ref EGF10027 protocol, CIB RM2000/00481/06; cited from earlier work"}, "[8]": {"system": "HER2+ human breast cancer cell lines", "design": "method as in PMID 12467226", "settings": "in vitro proliferative growth, cited from earlier work"}, "ErbB2 tyrosine kinase": {"molecular_target": "ErbB2 tyrosine kinase", "settings": "read-out: IC50, ErbB2 tyrosine kinase; in vitro kinase assay; ref EGF10027 protocol, CIB RM2000/00481/06; cited from earlier work"}, "[9]": {"settings": "rats; ref EGF10027 protocol, CIB RM2000/00481/06; cited from earlier work"}, "[10]": {"design": "method as in RM2005/00018/00 (Study EGF20008)", "settings": "single agent, heavily pre-treated population; ref RM2005/00018/00 (Study EGF20008); cited from earlier work"}, "[11]": {"design": "method as in EGF10027 protocol, CIB RM2000/00481/06", "settings": "ref EGF10027 protocol, CIB RM2000/00481/06, cited from earlier work"}, "[12]": {"system": "isolated canine cardiac Purkinje fibers", "design": "method as in EGF10027 protocol, CIB RM2000/00481/06", "settings": "ref EGF10027 protocol, CIB RM2000/00481/06; cited from earlier work"}, "EGFR": {"system": "EGFR", "settings": "read-out: IC50 for EGFR; stated as target binding affinity, ref not given; cited from earlier work"}, "[13]": {"design": "method as in study EGF10002", "settings": "ref study EGF10002, cited from earlier work"}, "human CYP450 enzymes": {"system": "human CYP450 enzymes", "settings": "also CYP3A5, lesser extent CYP2C19; ref EGF10027 protocol, CIB RM2000/00481/06; cited from earlier work"}, "[14]": {"experiment": "EGF10027 steady-state lapatinib concentrations in patient plasma and tumor", "format": "in vivo, human", "settings": "for concentration at 12 h / concentration at 24 h: female, human, oral; for concentration at 12 h: 500 mg"}, "plasma albumin": {"system": "plasma albumin", "design": "method as in printed", "settings": "ref not given; cited from earlier work"}, "[15]": {"settings": "cancer patients, once daily dosing up to 1800 mg, preliminary"}}, "note": "Where two headings read alike, the source gives them in different places."}
{"smiles": "CS(=O)(=O)CCNCc1ccc(-c2ccc3ncnc(Nc4ccc(OCc5cccc(F)c5)c(Cl)c4)c3c2)o1", "note": "[lapatinib]", "values": [{"measurement": "IC50", "setting": "efflux transporter ABCB1", "value": 4000, "unit": "nM"}, {"measurement": "urinary excretion of the oral dose", "setting": "[1]", "value": "< 1", "unit": "%"}, {"measurement": "CYP3A4 inhibition", "setting": "CYP3A4", "value": "inhibitory pot ential towards CYP3A4"}, {"measurement": "fetal malformations", "setting": "[2]", "value": "No fetal malform ations"}, {"measurement": "overall recovery of radioactivity (nearly quantitative in feces)", "setting": "[3]", "value": 89.9, "unit": "%"}, {"measurement": "subjects with dose-limiting toxicity (diarrhea)", "setting": "[4]; 900 mg BID", "value": "2 of 6"}, {"measurement": "incidence of diarrhea", "setting": "[4]; [15]", "value": "18-25%"}, {"measurement": "incidence of nausea", "setting": "[4]; [15]", "value": "< 10", "unit": "%"}, {"measurement": "incidence of rash", "setting": "[4]; [15]", "value": "< 10", "unit": "%"}, {"measurement": "incidence of gastrointestinal intolerance (nausea, vomiting and diarrhea)", "setting": "[4]; patients receiving twice daily dosing (900 or 750 mg)", "value": "~34", "unit": "%"}, {"measurement": "AUC with 900 mg BID compared with 1800 mg once daily, higher", "setting": "[4]; patients", "value": "~ two-fol d"}, {"measurement": "single intravenous dose with no deaths", "setting": "[5]", "value": "up to 46 mg/kg"}, {"measurement": "single oral dose with no deaths", "setting": "[5]", "value": "up to 2,000 mg/kg"}, {"measurement": "p-HER3 post-treatment OD, mean", "setting": "HER3; mean of listed subjects", "value": 10.40, "unit": "OD"}, {"measurement": "HER3 phosphorylation in tumor", "setting": "HER3; one patient with ABCB1 SNP C3435T, plasma 1 μM, tumor 9 μM", "value": "complete inhibition"}, {"measurement": "p-HER3 post-treatment OD", "setting": "HER3; subject 5, tumor 25.60 µM", "value": 16, "unit": "OD"}, {"measurement": "p-HER3 post-treatment OD", "setting": "HER3; subject 124, tumor 56.02 µM", "value": 7, "unit": "OD"}, {"measurement": "p-HER3 post-treatment OD", "setting": "HER3; subject 801, tumor 1.98 µM", "value": 14, "unit": "OD"}, {"measurement": "p-HER3 post-treatment OD", "setting": "HER3; subject 803, tumor 2.08 µM", "value": 5, "unit": "OD"}, {"measurement": "p-HER3 post-treatment OD", "setting": "HER3; subject 804, tumor 7.90 µM", "value": 11, "unit": "OD"}, {"measurement": "p-HER3 post-treatment OD", "setting": "HER3; subject 1401, tumor 1.02 µM", "value": 3, "unit": "OD"}, {"measurement": "p-HER3 post-treatment OD", "setting": "HER3; subject 1405, tumor 12.76 µM", "value": 18, "unit": "OD"}, {"measurement": "mutagenicity and clastogenicity", "setting": "[6]", "value": "non-mutagenic"}, {"measurement": "CYP3A induction", "setting": "CYP3A", "value": "no abil it y to induce CYP3A"}, {"measurement": "in vitro IC90 for inhibition of HER2 phosphorylation", "setting": "HER2 phosphorylation", "value": "~0.5", "unit": "µg/mL"}, {"measurement": "IC90", "setting": "HER2 phosphorylation; read-out: in vitro IC90 for inhibition of HER2 phosphorylation", "value": "~900", "unit": "nM"}, {"measurement": "fluctuation between peak and trough plasma concentrations at steady state", "setting": "[7]; patients, doses up to 1800 mg QD, ref EGF10027 protocol", "value": "[…]"}, {"measurement": "Cmin", "setting": "[7]; previous clinical studies, 1500 mg QD", "value": 1350, "unit": "nM"}, {"measurement": "plasma half-life", "setting": "[7]; ref EGF10027 protocol, original text", "value": "~14", "unit": "h"}, {"measurement": "plasma protein binding", "setting": "plasma proteins", "value": "> 99", "unit": "%"}, {"measurement": "IC90 in multiple HER2+ human breast cancer cell lines", "setting": "[8]", "value": "~0.5", "unit": "µg/mL"}, {"measurement": "IC90", "setting": "[8]; read-out: IC90 in multiple HER2+ human breast cancer cell lines", "value": "~900", "unit": "nM"}, {"measurement": "IC50", "setting": "ErbB2 tyrosine kinase", "value": 9, "unit": "nM"}, {"measurement": "single intravenous dose with no deaths", "setting": "[9]", "value": "≤ 21", "unit": "mg/kg"}, {"measurement": "single oral dose with no deaths", "setting": "[9]", "value": "up to 2,000 mg/kg"}, {"measurement": "clinical benefit response rate", "setting": "[10]", "value": 6, "unit": "%"}, {"measurement": "dose recovered in bile", "setting": "[11]; bile duct cannulated male rats, within 5 hours after dosing", "value": 32, "unit": "%"}, {"measurement": "overall recovery of radioactivity (nearly quantitative in feces)", "setting": "[11]; oral, male Wistar Han rats", "value": 90.0, "unit": "%"}, {"measurement": "concentration not altering action potential parameters", "setting": "[12]", "value": "[…]"}, {"measurement": "IC50", "setting": "EGFR", "value": "[…]"}, {"measurement": "accumulation with once daily dosing", "setting": "[13]; 100 and 175 mg doses", "value": "~50", "unit": "%"}, {"measurement": "half-life", "setting": "[13]; Day 1", "value": 7, "unit": "h"}, {"measurement": "metabolizing CYP enzymes", "setting": "human CYP450 enzymes", "value": "metabolized predominantl y by CYP3A4"}, {"measurement": "concentration at 12 h", "setting": "[14]; plasma, patients, median (range), 500 mg BID (n = 5), steady state, read-out: Plasma Cmin", "value": 2750, "unit": "nM"}, {"measurement": "concentration at 24 h", "setting": "[14]; plasma, 1000 mg, patients, median (range), 1000 mg QD (n = 5), steady state, read-out: Plasma Cmin", "value": 1540, "unit": "nM"}, {"measurement": "concentration at 24 h", "setting": "[14]; plasma, 1500 mg, patients, median (range), 1500 mg QD (n = 3), steady state, read-out: Plasma Cmin", "value": 390, "unit": "nM"}, {"measurement": "concentration at 12 h", "setting": "[14]; tumor, patients, median (range), 500 mg BID (n = 5), steady state, read-out: Tumor Cmin", "value": 13000, "unit": "nM"}, {"measurement": "concentration at 24 h", "setting": "[14]; tumor, 1000 mg, patients, median (range), 1000 mg QD (n = 5), steady state, read-out: Tumor Cmin", "value": 2290, "unit": "nM"}, {"measurement": "concentration at 24 h", "setting": "[14]; tumor, 1500 mg, patients, median (range), 1500 mg QD (n = 3), steady state, read-out: Tumor Cmin", "value": 2270, "unit": "nM"}, {"measurement": "Tumor Cmin", "setting": "[14]; patients, median (range), 500 mg BID (n = 5), steady state", "value": "12.8 (7.9–31.1) μM"}, {"measurement": "Lap conc, tumor", "setting": "[14]; subject 5", "value": 25.60, "unit": "µM"}, {"measurement": "Lap conc, tumor", "setting": "[14]; subject 124", "value": 56.02, "unit": "µM"}, {"measurement": "Lap conc, tumor", "setting": "[14]; subject 801", "value": 1.98, "unit": "µM"}, {"measurement": "Lap conc, tumor", "setting": "[14]; subject 803", "value": 2.08, "unit": "µM"}, {"measurement": "Lap conc, tumor", "setting": "[14]; subject 804", "value": 7.90, "unit": "µM"}, {"measurement": "Lap conc, tumor", "setting": "[14]; subject 1401", "value": 1.02, "unit": "µM"}, {"measurement": "Lap conc, tumor", "setting": "[14]; subject 1403", "value": 9.08, "unit": "µM"}, {"measurement": "Lap conc, tumor", "setting": "[14]; subject 1405", "value": 12.76, "unit": "µM"}, {"measurement": "binding to plasma albumin", "setting": "plasma albumin", "value": "> 99", "unit": "%"}]}
